Experimental data: PMC3351444, “Molecular Evolution of a Peptide GPCR Ligand Driven by Artificial Neural Networks” (PLoS ONE, 2012)
pEC50: −log10 of the molar value. Square brackets hold non-standard residues; d marks the D form. Peptide text beside a SMILES is read from it.

Experiments:
[1] = In vitro peptide stability in human serum (RP-HPLC); conditions: human, human serum, 25% (v/v) in RPMI
Protocol: The initial time is recorded, and at known time intervals 50 µL of the reaction solution is removed and added to 100 µL of 6% aqueous trichloroacetic acid (TCA) for precipitation of serum proteins. […] The reaction supernatant is then analyzed using RP-HPLC (Agilent 1200 LC System) on a ZORBAX Eclipse XDB-C18, 4.6×150 mm, 5 µm column (Agilent). […] Fluorescence is detected at an excitation wavelength of 280 nm and emission wavelength of 340 nm. Kinetic analysis was carried out by least-squares analysis of the logarithm of the integration peak area versus time.

[2] = target: T1, human CMKLR1 (Homo sapiens, UniProt Q99788); assay: Ca2+ mobilization (CellLux imaging) agonist assay in HEK293A cells expressing CMKLR1 and Gα15; assay type: cell-based; conditions: Ca2+ mobilization, CMKLR1, decimal comma; for pEC50: NR where no EC50 is given, read-out: EC50
T1 construct: host or cells: HEK293A (Invitrogen), stably expressing human Gα15
T1 sequence (Q99788 1-373): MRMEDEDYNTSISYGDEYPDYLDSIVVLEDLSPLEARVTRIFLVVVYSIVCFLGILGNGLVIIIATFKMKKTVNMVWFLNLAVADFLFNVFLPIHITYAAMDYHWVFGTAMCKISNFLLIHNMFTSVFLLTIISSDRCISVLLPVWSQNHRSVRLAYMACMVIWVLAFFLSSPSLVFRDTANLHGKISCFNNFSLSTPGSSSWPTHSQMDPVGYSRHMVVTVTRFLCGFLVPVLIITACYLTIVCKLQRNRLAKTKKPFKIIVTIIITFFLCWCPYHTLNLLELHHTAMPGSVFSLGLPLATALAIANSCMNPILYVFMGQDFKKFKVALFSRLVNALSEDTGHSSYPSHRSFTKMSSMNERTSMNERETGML
Procedure, shortened: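 HEK293A cells co-expressing CMKLR1 and Gα15 were loaded with FLUO4-AM, and peptides were added robotically in C1 buffer (HEPES pH 7.4, 2 mM CaCl2) with 0.1% BSA. Fluorescence changes were read in duplicate wells, buffer-subtracted and normalized to background. EC50 came from amplitude–concentration plots.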

Row | Compound | half-life at 50 µg/mL [1] [h] | max response [2] | pEC50 [2]
1 | CC(C)C[C@H](N)C(=O)N[C@H](Cc1c[nH]c2ccccc12)C(=O)NCC(=O)NCC(=O)N1CCC[C@H]1C(=O)N[C@@H](Cc1ccc(O)cc1)C(=O)N[C@@H](C)C(=O)N[C@H](CC(=O)O)C(=O)N[C@@H](CO)C(=O)O [compound 131] (H-L[dW]GGPYA[dD]S-OH; N-terminus assumed) | 9.18 | 1,67 DF/F0 | 7.27
2 | CC(C)C[C@H](NC(=O)CN)C(=O)N[C@@H](CCC(N)=O)C(=O)N[C@H](CCC(N)=O)C(=O)N[C@@H](Cc1ccccc1)C(=O)N[C@@H](Cc1ccc(O)cc1)C(=O)N[C@H](Cc1c[nH]c2ccccc12)C(=O)NCC(=O)N[C@H](Cc1ccccc1)C(=O)O [compound 132] (H-GLQ[dQ]FY[dW]G[dF]-OH; N-terminus assumed) | 1.95 | 1,82 DF/F0 | 7.25
3 | NC(=O)CC[C@H](NC(=O)CNC(=O)[C@@H]1CCCN1C(=O)[C@H](Cc1ccccc1)NC(=O)[C@H](N)Cc1ccc(O)cc1)C(=O)N[C@@H](Cc1ccc(O)cc1)C(=O)N[C@H](Cc1c[nH]c2ccccc12)C(=O)N[C@@H](Cc1ccccc1)C(=O)N[C@H](Cc1ccccc1)C(=O)O [compound 133] (H-[dY]FPGQY[dW]F[dF]-OH; N-terminus assumed) | 0.333 | 1,62 DF/F0 | 7.17
4 | C[C@H](N)C(=O)N[C@@H](Cc1ccccc1)C(=O)NCC(=O)N[C@H](Cc1ccccc1)C(=O)N[C@H](CCC(N)=O)C(=O)N[C@@H](CO)C(=O)N[C@@H](C)C(=O)N[C@@H](Cc1ccc(O)cc1)C(=O)N[C@@H](CO)C(=O)O [compound 134] (H-AFG[dF][dQ]SAYS-OH; N-terminus assumed) | 0.167 | 1,37 DF/F0 | 7.16
5 | CC(C)C[C@H](NC(=O)[C@H](C)NC(=O)[C@H](Cc1ccc(O)cc1)NC(=O)[C@@H](CCC(N)=O)NC(=O)CNC(=O)[C@@H]1CCCN1C(=O)[C@H](CC(C)C)NC(=O)[C@@H](N)Cc1ccc(O)cc1)C(=O)N[C@H](Cc1ccccc1)C(=O)O [compound 135] (H-YLPG[dQ]YAL[dF]-OH; N-terminus assumed) | 0.667 | 1,48 DF/F0 | 7.14
6 | CC(C)C[C@H](NC(=O)[C@H](C)NC(=O)[C@H](Cc1ccc(O)cc1)NC(=O)[C@@H](Cc1ccc(O)cc1)NC(=O)CNC(=O)[C@@H]1CCCN1C(=O)[C@H](CC(C)C)NC(=O)[C@@H](N)Cc1ccc(O)cc1)C(=O)N[C@H](Cc1ccccc1)C(=O)O [compound 136] (H-YLPG[dY]YAL[dF]-OH; N-terminus assumed) | 1.62 | 1,4 DF/F0 | 7.12
7 | NC(=O)CC[C@H](NC(=O)CNC(=O)[C@@H]1CCCN1C(=O)[C@@H](Cc1ccc(O)cc1)NC(=O)[C@H](Cc1ccc(O)cc1)NC(=O)[C@H](CCC(N)=O)NC(=O)[C@H](N)Cc1ccccc1)C(=O)N[C@@H](Cc1ccc(O)cc1)C(=O)N[C@@H](Cc1ccc(O)cc1)C(=O)O [compound 137] (H-[dF]QY[dY]PGQYY-OH; N-terminus assumed) | 1.8 | 1,42 DF/F0 | 6.99
8 | CC(C)C[C@H](N)C(=O)N[C@H](Cc1ccccc1)C(=O)NCC(=O)N1CCC[C@@H]1C(=O)N[C@@H](Cc1ccc(O)cc1)C(=O)NCC(=O)N[C@H](Cc1c[nH]c2ccccc12)C(=O)N[C@H](CO)C(=O)N[C@@H](C)C(=O)O [compound 138] (H-L[dF]G[dP]YG[dW][dS]A-OH; N-terminus assumed) | 10.6 | 1,97 DF/F0 | 6.98
9 | CC(C)C[C@@H](NC(=O)[C@H](Cc1c[nH]cn1)NC(=O)[C@@H](N)CO)C(=O)NCC(=O)N[C@@H](CCC(N)=O)C(=O)N[C@@H](Cc1ccccc1)C(=O)N[C@H](Cc1c[nH]c2ccccc12)C(=O)N[C@@H](Cc1ccccc1)C(=O)N[C@H](CO)C(=O)O [compound 139] (H-SH[dL]GQF[dW]F[dS]-OH; N-terminus assumed) | 0.933 | 1,55 DF/F0 | 6.98
10 | CC(C)C[C@@H](NC(=O)[C@H](Cc1c[nH]cn1)NC(=O)[C@H](N)CO)C(=O)NCC(=O)N[C@@H](CCC(N)=O)C(=O)N[C@@H](Cc1ccc(O)cc1)C(=O)N[C@@H](C)C(=O)N[C@@H](Cc1ccccc1)C(=O)N[C@H](Cc1ccccc1)C(=O)O [compound 140] (H-[dS]H[dL]GQYAF[dF]-OH; N-terminus assumed) | 10.2 | 1,49 DF/F0 | 6.98
11 | CC(C)C[C@H](NC(=O)[C@@H](N)Cc1ccc(O)cc1)C(=O)N1CCC[C@H]1C(=O)NCC(=O)N[C@@H](CCC(N)=O)C(=O)N[C@@H](Cc1ccc(O)cc1)C(=O)N[C@@H](C)C(=O)N[C@H](C)C(=O)N[C@H](Cc1ccccc1)C(=O)O [compound 141] (H-YLPGQYA[dA][dF]-OH; N-terminus assumed) | 0.567 | 1,73 DF/F0 | 6.96
12 | CC(C)C[C@H](NC(=O)[C@H](N)Cc1ccc(O)cc1)C(=O)N1CCC[C@H]1C(=O)NCC(=O)N[C@H](Cc1c[nH]c2ccccc12)C(=O)N[C@@H](Cc1ccc(O)cc1)C(=O)N[C@@H](C)C(=O)N[C@@H](Cc1ccccc1)C(=O)N[C@H](Cc1ccccc1)C(=O)O [compound 142] (H-[dY]LPG[dW]YAF[dF]-OH; N-terminus assumed) | 7.02 | 1,55 DF/F0 | 6.89
13 | CC(C)C[C@H](NC(=O)[C@@H](N)CC(C)C)C(=O)N[C@@H](Cc1ccc(O)cc1)C(=O)N[C@H](Cc1c[nH]c2ccccc12)C(=O)N1CCC[C@H]1C(=O)N[C@@H](Cc1ccc(O)cc1)C(=O)N[C@@H](C)C(=O)N[C@@H](CCCCN)C(=O)N[C@H](CO)C(=O)O [compound 144] (H-LLY[dW]PYAK[dS]-OH; N-terminus assumed) | 1.35 | 1,56 DF/F0 | 6.84
14 | CC(C)C[C@H](NC(=O)[C@H](Cc1ccc(O)cc1)NC(=O)[C@@H](Cc1ccccc1)NC(=O)[C@@H]1CCCN1C(=O)[C@H](CC(C)C)NC(=O)[C@@H](N)Cc1ccc(O)cc1)C(=O)N1CCC[C@H]1C(=O)NCC(=O)N[C@H](Cc1ccccc1)C(=O)O [compound 145] (H-YLP[dF]YLPG[dF]-OH; N-terminus assumed) | 0.667 | 1,02 DF/F0 | 6.82
15 | C[C@@H](NC(=O)[C@H](Cc1ccc(O)cc1)NC(=O)[C@H](CCC(N)=O)NC(=O)[C@H](N)Cc1ccccc1)C(=O)N[C@@H](CCC(N)=O)C(=O)N[C@@H](Cc1ccc(O)cc1)C(=O)N[C@H](Cc1c[nH]c2ccccc12)C(=O)N[C@@H](Cc1ccccc1)C(=O)N[C@H](CO)C(=O)O [compound 146] (H-[dF]QY[dA]QY[dW]F[dS]-OH; N-terminus assumed) | 37.7 | 1,49 DF/F0 | 6.77
16 | CC(C)C[C@H](NC(=O)[C@@H](N)Cc1ccc(O)cc1)C(=O)N1CCC[C@H]1C(=O)N[C@@H](Cc1ccc(O)cc1)C(=O)N1CCC[C@H]1C(=O)N[C@@H](Cc1ccc(O)cc1)C(=O)N1CCC[C@@H]1C(=O)N[C@@H](Cc1ccccc1)C(=O)N[C@H](Cc1ccccc1)C(=O)O [compound 147] (H-YLPYPY[dP]F[dF]-OH; N-terminus assumed) | 0.467 | 1,36 DF/F0 | 6.68
